These results are taken from PMC6072853 (Frontiers in Pharmacology, 2018).

As usually defined, the inhibition is the drop in the measured response relative to a control, in per cent. By IC50 is commonly meant the midpoint of a concentration-inhibition curve. Broadly, the EC50 is the midpoint of the concentration-response curve.

Experiment [1] deals with HeLa. In words: MTT antiproliferative assay, HeLa. The format is cell-based, human. Conditions: Homo sapiens, 72 h; for inhibition at 10 µM / inhibition at 30 µM: read-out: Growth inhibition (%) ± SEM; for IC50: read-out: calculated IC50 value. An excerpt: (§1) Gynecological cancer cell lines, including ovarian (A2780), cervical (HeLa), and breast cancer cell lines (MCF7, T47D, MDA-MB-231, and MDA-MB-361) were purchased from the European Collection of Authenticated Cell Cultures (ECACC, Salisbury, United Kingdom). Additional cervical cell lines (SiHa and C33A) and a non-cancerous immortalized, mammary gland epithelial cell line (hTERT-HME1) were purchased from LGC Standards GmbH (Wesel, Germany). Non-cancerous fibroblast cells (MRC-5) were also obtained from the ECACC. All cells were cultured in minimal essential medium supplemented with 10% fetal bovine serum, 1% non-essential amino acids, and 1% antibiotic-antimycotic mixture, in humidified air containing 5% CO2 at 37°C. Immortalized hTERT-HME1 cells were maintained in serum-free mammary epithelial cell growth medium (MEGM) supplemented with insulin, human epidermal growth factor (hEGF), hydrocortisone, bovine pituitary extract, and an antibiotic-antimycotic mixture. All the medium and supplements were purchased from Lonza Group Ltd. (Basel, Switzerland).
(§2) The antiproliferative properties of the compounds were assessed by an MTT assay ([Mosmann, 1983]). Cells were seeded onto 96-well microplates at a density of 10,000 cells/well (MDA-MB-361 and C33A) or 5,000 cells/well (all other cell lines). After an overnight incubation, fresh medium containing the test compounds (at a concentration of 10 or 30 μM) was added. After incubation for 72 h at 37°C in humidified air, [3-(4,5-dimethylthiazol-2-yl)-2,5-diphenyltetrazolium bromide] (MTT) solution (5 mg/mL) was added. Purple formazan crystals were formed by the living cells during a 4 h contact period, which were assayed by spectrophotometry after having been dissolved in 100 μL DMSO. Untreated cells served as control, and cisplatin (CIS) (Ebewe Pharma GmbH, Unterach, Austria) was used as a reference compound. […] Two independent measurements were performed with five parallel wells. To present preliminary data concerning tumor selectivity of the potent compounds, the procedure was repeated on MRC-5 fibroblast and hTERT-HME1 immortalized mammary gland epithelial cells under the same experimental conditions.

In experiment [2] the test system is MCF-7. In words: MTT antiproliferative assay, MCF-7. The format is cell-based, human. Conditions: Homo sapiens, MCF7, 72 h, read-out: Growth inhibition (%) ± SEM; for inhibition at 10 µM: MCF-7, 10 μM; for inhibition at 30 µM: MCF-7, 30 μM.
From the text: as §1, §2

Experiment [3] has as its system MDA-MB-231. Put plainly: MTT antiproliferative assay, MDA-MB-231. It is filed as cell-based, human. Conditions: Homo sapiens, 72 h, read-out: Growth inhibition (%) ± SEM; for inhibition at 10 µM: MDA-MB-231, 10 μM; for inhibition at 30 µM: MDA-MB-231, 30 μM.
From the text: as §1, §2

For experiment [4], the system named is MDA-MB-361. In words: MTT antiproliferative assay, MDA-MB-361. The format is cell-based, human. As to conditions: Homo sapiens, 72 h, read-out: Growth inhibition (%) ± SEM; for inhibition at 10 µM: MDA-MB-361, 10 μM; for inhibition at 30 µM: MDA-MB-361, 30 μM.
From the text: as §1, §2
A general note: Formazan colour is commonly taken as a measure of viable cells.

In experiment [5] the test system is hTERT-HME1. Put plainly: MTT assay, immortalized mammary gland epithelial cells hTERT-HME1. It is filed as cell-based, human. Conditions: Homo sapiens; for inhibition at 10 µM: hTERT-HME1, 10 μM; for inhibition at 10 µM / inhibition at 30 µM: 72 h, read-out: Growth inhibition (%) ± SEM; for inhibition at 30 µM: hTERT-HME1, 30 μM.
From the text: as §1, §2

Experiment [6] relates to HeLa cells. Put plainly: Flow cytometric analysis of cell cycle. The format is cell-based, human. As to the method: The distribution of cells in different cell cycle phases (subG1, G1, S and G2/M) was analyzed via the measurement of cellular DNA content by flow cytometry. HeLa cells were seeded onto 6-well plates and allowed to stand for an overnight. The cells were treated with the selected compounds for 24, 48, or 72 h. Then cells were harvested, washed and fixed in ice cold 70% ethanol and stored at −20°C at least for an hour. Next, a DNA staining solution (containing distilled water, propidium-iodide, Triton-X100, sodium citrate, and ribonuclease-A) was added to each sample and stored in the dark at room temperature for an hour. Stained cells were analyzed by flow cytometry (Partec CyFlow, Partec GmbH, Munster, Germany) with at least 20,000 cells being evaluated for each analysis. Data processing was performed using the ModFit LT 3.3.11 software (Verity Software House, Topsham, ME, United States).
A general note: A flow cytometer gives signals particle by particle.

The target of experiment [7] is T1, human androgenic receptor (Homo sapiens, UniProt P10275).
T1 construct: host or cells: Saccharomyces cerevisiae
T1 sequence (P10275 1-920): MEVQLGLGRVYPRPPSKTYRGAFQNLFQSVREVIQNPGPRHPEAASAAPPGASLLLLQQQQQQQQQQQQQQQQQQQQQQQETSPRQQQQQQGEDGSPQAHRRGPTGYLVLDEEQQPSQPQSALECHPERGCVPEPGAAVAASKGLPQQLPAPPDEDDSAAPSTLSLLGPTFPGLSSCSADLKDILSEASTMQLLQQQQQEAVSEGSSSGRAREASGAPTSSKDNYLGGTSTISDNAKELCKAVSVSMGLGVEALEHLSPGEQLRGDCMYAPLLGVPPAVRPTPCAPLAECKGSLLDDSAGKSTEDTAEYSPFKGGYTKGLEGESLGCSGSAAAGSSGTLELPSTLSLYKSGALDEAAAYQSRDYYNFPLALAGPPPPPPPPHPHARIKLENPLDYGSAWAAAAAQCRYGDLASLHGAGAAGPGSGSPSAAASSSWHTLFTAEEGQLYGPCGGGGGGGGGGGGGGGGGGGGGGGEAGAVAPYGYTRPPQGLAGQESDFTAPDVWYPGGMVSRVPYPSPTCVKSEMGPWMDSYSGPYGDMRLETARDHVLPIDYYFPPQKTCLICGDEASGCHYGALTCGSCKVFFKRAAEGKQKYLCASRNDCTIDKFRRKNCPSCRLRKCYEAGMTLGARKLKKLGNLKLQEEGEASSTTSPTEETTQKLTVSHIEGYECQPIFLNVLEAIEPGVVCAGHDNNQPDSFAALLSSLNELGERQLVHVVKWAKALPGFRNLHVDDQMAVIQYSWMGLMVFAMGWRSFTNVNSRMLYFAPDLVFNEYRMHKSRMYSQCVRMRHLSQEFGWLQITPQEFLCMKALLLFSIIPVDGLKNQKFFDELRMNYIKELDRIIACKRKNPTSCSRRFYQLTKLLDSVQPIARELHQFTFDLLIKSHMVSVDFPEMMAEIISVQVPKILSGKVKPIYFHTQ
Put plainly: Yeast-based androgenic reporter assay, agonistic. Conditions: read-out: Calculated EC50 values, androgenic activity. The format is cell-based.
Description: Genetically modified yeast cells (Saccharomyces cerevisiae) containing the human androgenic receptor gene integrated into a yeast chromosome, as well as an expression plasmid with the sequences of both the androgen responsive element and a lacZ reporter gene were cultured in humidified air at 31°C with agitation for 2 days. The appropriate concentrations of the test compounds and a CPRG substrate solution (chlorophenol red-β-D-galactopyranoside) for β-galactosidase were added into a 96-well microplate according to the instructions of the manufacturer. Androgen agonistic and antagonistic properties of the test compounds were determined by a colorimetric assay. For the antagonistic measurements the medium was supplemented with 5α-dihydrotestosterone (DHT). Once the reporter gene is expressed, β-galactosidase is secreted into the medium, and converts the yellow CPRG substrate into a red product, which can be quantified at 570 nm. Quantities of this red product correlate with the liberation of β-galactosidase, which is increased when an agonistic effect is present, while it is decreased when the test compound exerts an antagonistic effect. For the agonistic and antagonistic assays, nandrolone (1) and flutamide were used as reference agents, respectively.

Take `C[C@]12CC[C@H]3[C@@H](CCC4=CC(=O)CC[C@@H]43)[C@@H]1CC[C@H]2Cl` [Compound 3]: the inhibition at 10 µM in experiment [1] is 95.9 ± 0.3%; in experiment [2], < 20%; in experiment [3] it was < 20%; in experiment [4], < 20%; in experiment [5], 76.2 ± 0.5%. For the same compound, the inhibition at 30 µM in experiment [1] was 95.1 ± 0.5%; in experiment [2], 36.9 ± 2%; in experiment [3] it was < 20%; in experiment [4], 21.8 ± 2.5%; in experiment [5], 99.9 ± 0.1%. The IC50 in experiment [1] is 1210 nM; in experiment [5] (hTERT-HME1, 72 h, read-out: calculated IC50 value), 4630 nM. For the same compound, the “effect on cell cycle phase distribution” value in experiment [6] (24 h) is “did not have any remarkable effect on cell cycle”; in experiment [6] (48 h) it was “substantially elevated increase of the subG1 population at the expense of G1 cells”. In addition, in experiment [7], the EC50 is 3800 nM.
As to `C[C@]12CC[C@H]3[C@@H](CCC4=CC(=O)CC[C@@H]43)[C@@H]1CC[C@@H]2O` [Compound 1, 19-nortestosterone, reference compound], the inhibition at 10 µM in experiment [1] is 99.5 ± 0.2%; in experiment [2], < 20%; in experiment [3] it was < 20%; in experiment [4], < 20%; in experiment [5], 16.9 ± 1.2%. The inhibition at 30 µM in experiment [1] is 99.5 ± 0.3%; in experiment [2], < 20%; in experiment [3], 21.4 ± 1.2%; in experiment [4] it was < 20%; in experiment [5], 37.1%. For the same compound, in experiment [1], the half-maximal inhibitory concentration (IC50) was 650 nM. Besides, the “effect on cell cycle phase distribution” value is “significant decrease in the G1 and a moderate but significant increase in the G2/M phase cell population” in experiment [6] (24 h); “these changes became more pronounced” in experiment [6] (48 h); “concentration-dependent accumulation of hypodiploid cells” in experiment [6] (72 h).
